Source: paper PMC4750852, “Synergistic Malaria Parasite Killing by Two Types of Plasmodial Surface Anion Channel Inhibitors” (PLoS ONE, 2016)
Like-named read-outs stand apart in the source and are kept apart here. Blank lines part the entries; values can stand above or below the compound they belong to.

What was measured:
[1] = test system: plasmodial surface anion channel (PSAC), primary transport; experiment: Osmotic lysis kinetics, primary transport (sorbitol / alanine uptake) in infected erythrocytes; format: cell-based, Plasmodium falciparum
Protocol: (§1) Enriched cells were washed in HBS (150 mM NaCl, 20 mM Na-HEPES, 0.1 mg/mL BSA, pH 7.5) and used for continuous tracking of osmotic lysis in permeant solutes as described. PSAC-mediated uptake was initiated by resuspension of cells in osmotic lysis solutions containing 20 mM Na-HEPES, 0.1 mg/mL BSA with permeant solute or salt added at 280–290 mOsm; where present, inhibitors were added from concentrated stocks in DMSO. Osmotic swelling and lysis at 37°C was then kinetically tracked by recording the transmittance of 700 nm light through the 1 mL cell suspension (Beckman Coulter spectrophotometer, Indianapolis, IN). Regular manual resuspension was used to minimize the effects of cell settling. Solute permeability was calculated using locally developed script as described. The data are presented with normalization to inhibitor-free controls included in each experiment.

[2] = test system: plasmodial surface anion channel (PSAC), residual transport; experiment: Osmotic lysis kinetics, residual proline transport with 200 μM furosemide; format: cell-based, Plasmodium falciparum; conditions: added to 200 μM furosemide; maximal inhibition less than with PhTMA+
Protocol: as §1, with “Transport measurements used synchronous trophozoite-stage infected erythrocytes enriched from P. falciparum cultures by Percoll/sorbitol separation to > 95% parasitemia. Enriched” for “Enriched”

[3] = test system: P. knowlesi channel (PSAC); experiment: Osmotic lysis kinetics in rhesus erythrocytes infected with P. knowlesi; format: cell-based; conditions: 3 μM inhibitor with 200 μM furosemide
Protocol: as §1

P. falciparum [4] = experiment: Parasite growth inhibition, SYBR Green I assay, 72 h; format: cell-based, Plasmodium falciparum; conditions: for Improvement in growth IC50 in PGIM relative to standard medium: ratio of IC50 standard RPMI 1640-based medium to PGIM, present and prior studies [2]
Protocol: Efficacy of inhibitors against in vitro parasite growth was evaluated with the SYBR Green I assay for parasite nucleic acid as described. […] These cultures were then lysed (20 mM Tris, 10 mM EDTA, 0.016% saponin, 1.6% Triton X-100, pH 7.5) and incubated for 45 min with SYBR Green I nucleic acid stain at a 5000-fold dilution (Invitrogen, Waltham, MA). The mean fluorescence of replicate wells (excitation, 485 nm; emission, 528 nm) was used to quantify parasite DNA content and growth after normalization to in-plate controls with and without 20 μM chloroquine (100 and 0% growth inhibition, respectively).

[5] = test system: plasmodial surface anion channel (PSAC), residual transport; experiment: Osmotic lysis kinetics, residual PhTMA+ transport in infected erythrocytes (with a primary component inhibitor present); format: cell-based, Plasmodium falciparum
Protocol: as §1

P. falciparum [6] = experiment: Fixed-ratio combination growth inhibition, isobologram analysis; format: cell-based, Plasmodium falciparum; conditions: combination of 0.82 μM cpd 1 and 0.35 μM PRT1-20
Protocol: Efficacy of inhibitors against in vitro parasite growth was evaluated with the SYBR Green I assay for parasite nucleic acid as described. […] These cultures were then lysed (20 mM Tris, 10 mM EDTA, 0.016% saponin, 1.6% Triton X-100, pH 7.5) and incubated for 45 min with SYBR Green I nucleic acid stain at a 5000-fold dilution (Invitrogen, Waltham, MA). The mean fluorescence of replicate wells (excitation, 485 nm; emission, 528 nm) was used to quantify parasite DNA content and growth after normalization to in-plate controls with and without 20 μM chloroquine (100 and 0% growth inhibition, respectively). Growth inhibition resulting from combinations of PSAC inhibitors was similarly evaluated using fixed ratios of the two compounds [28]. For each experiment, […] of the two inhibitors (10:0, 9:1, …, 1:9, 0:10) were prepared based on the optimal concentrations of each in isolated growth inhibition dose responses. For each ratio, serial dilutions were used to generate dose responses and permit calculation of IC50 values by interpolation; in each experiment, matched dose responses were included for each compound in isolation. […] For each inhibitor combination, synergistic action was quantified using the ∑FIC50 (sum of fractional inhibitor concentrations producing 50% block); values of this parameter below 0.7 indicate strong synergistic action.

- IC50 ([1]; sorbitol without furosemide, mean ± S.E.M., read-out: K0.5 against sorbitol uptake (primary channel route)): 590 ± 43 nM
- IC50 ([5]; PhTMA-Cl plus 100 nM ISG-21, read-out: K0.5 for block of residual PhTMA+ transport): 44 nM
- IC50 ([5]; PhTMA-Cl plus 2 μM TP-52, read-out: K0.5 for block of residual PhTMA+ transport): 56 nM
- IC50 ([5]; in combination with 200 μM furosemide, mean ± S.E.M., read-out: K0.5 for block of residual PhTMA+ uptake): 190 ± 3 nM
SMILES: CCOc1ccc(C(=O)Nc2ccc(-c3nn4c(C)nnc4s3)cc2)cc1 [PRT-1]
- Effect on residual proline transport [2]: clearly reduced proline transport further
- Effect on residual PhTMA+ transport via the P. knowlesi channel [3]: inhibit
- Improvement in growth IC50 in PGIM relative to standard medium (P. falciparum [4]): did not show measurable changes in efficacy in PGIM

SMILES: O=C(COc1ccc2ccccc2c1)Nc1cccc(-c2nc3ncccc3o2)c1 [PRT-3]
- Effect on residual PhTMA+ transport via the P. knowlesi channel [3]: inhibit
- Improvement in growth IC50 in PGIM relative to standard medium (P. falciparum [4]): did not show measurable changes in efficacy in PGIM

- IC50 (P. falciparum [4]; PGIM): 17.3 ± 1 nM
- IC50 (P. falciparum [4]; PGIM with isoleucine increased to 34 μM): 1250 ± 100 nM
- Improvement in growth IC50 in PGIM relative to standard medium (P. falciparum [4]): significantly improved activity in PGIM
SMILES: Cc1ccc(C)c(N2CCN(S(=O)(=O)c3ccc(-c4ccc(=O)[nH]n4)s3)CC2)c1 [ISG-21, reference compound]
- Effect on sorbitol uptake at selected concentration ([1]; 100 nM ISG-21, 2 μM TP-52, residual uptake of PhTMA+ remains): abolish sorbitol uptake
- Fold less effective against residual PhTMA+ transport than against sorbitol uptake ([5]; comparison of K0.5 values, PhTMA+ + 200 μM furosemide vs sorbitol): up to 3000 fold

- Concentration in the combination as share of the compound's single drug IC50 (P. falciparum [6]): approximately 10%
SMILES: CCCCOc1ccc(C(=O)Nc2ccc(-c3nn4c(C)nnc4s3)cc2)cc1 [PRT1-20]
- Action against the primary transport component compared to PRT-1 ([1]; sorbitol without furosemide, dose response): significantly reduced action
- Parasite growth inhibition, single compound (P. falciparum [4]; applied individually, standard RPMI-1640 based media): low micromolar concentrations
- Activity against residual PhTMA+ transport compared to PRT-1 ([5]; PhTMA+ with 200 μM furosemide, dose response): improved activity
